Where two headings read alike, the source gives them in different places.

Results on 32 compounds are retold here after patent US4120864A, “1,2,4-4H-triazole derivatives” (Rohm and Haas Company, priority 1972, dated 1978).

Assay [1] relates to wheat leaf rust, Puccinia recondita. The experiment in a line: whole plant or invertebrate. The class given is in vivo. As to conditions: foliar; for pest or weed control at 280.212 g/ha: read-out: % Control (without rain), foliar, 0.25 lb.; for pest or weed control at 1120.85 g/ha: read-out: % Control (without rain), foliar, 1 lb.
The test system is the same in assay [2]. Kind of assay: whole plant or invertebrate. It counts as in vivo. As to conditions: foliar; for pest or weed control at 280.212 g/ha: read-out: % Control (with 1" of rain), foliar, 0.25 lb., 1" of rain; for pest or weed control at 1120.85 g/ha: read-out: % Control (with 1" of rain), foliar, 1 lb., 1" of rain.

As for `c1cc(-n2cnnc2)ccn1` [Example 61, 4-(4-pyridyl)-1,2,4-triazole], in assay [1], the pest or weed control at 280.212 g/ha amounted to 10% and the pest or weed control at 1120.85 g/ha was determined as 10%. Besides, in assay [2], the pest or weed control at 280.212 g/ha is 0% and the pest or weed control at 1120.85 g/ha was found to be 0%.

With `c1nc(-n2cnnc2)n[nH]1` [Example 66, 4-(3-(1,2,4-triazy)-1,2,4-triazole], the pest or weed control at 280.212 g/ha in assay [1] was determined as 100%; in assay [2], 99%. For the same compound, the pest or weed control at 1120.85 g/ha in assay [1] is 100%.

Take `COc1ccc(CCn2cnnc2)cc1` [Example 34, 4-(4-methoxyphenethyl)-1,2,4-triazole]: in assay [1], the pest or weed control at 280.212 g/ha amounted to 15% and the pest or weed control at 1120.85 g/ha turned out to be 25%. For the same compound, in assay [2], the pest or weed control at 280.212 g/ha was found to be 15% and the pest or weed control at 1120.85 g/ha turned out to be 15%.

Turning to `CCCCn1c(C)nnc1S` [Example 89, 3-mercapto-4-n-butyl-5-methyl-1,2,4-triazole], in assay [1], the pest or weed control at 280.212 g/ha was found to be 26% and the pest or weed control at 1120.85 g/ha came to 51%. In assay [2], the pest or weed control at 280.212 g/ha was 57% and the pest or weed control at 1120.85 g/ha came out at 80%.

`O=C(O)CCn1cnnc1` [Example 41, 4-(2-carboxyethyl)-1,2,4-triazole]: in assay [1], the pest or weed control at 280.212 g/ha turned out to be 85% and the pest or weed control at 1120.85 g/ha is 90%. In assay [2], the pest or weed control at 280.212 g/ha worked out at 0% and the pest or weed control at 1120.85 g/ha was 0%.

In the case of `c1cnc(-n2cnnc2)nc1` [Example 67, 4-(2-pyrimidyl)-1,2,4-triazole], the pest or weed control at 280.212 g/ha in assay [1] was determined as 94%. The pest or weed control at 1120.85 g/ha in assay [1] came out at 87%; in assay [2] it was 97%.

`CCCCn1cnnc1SC(C)=O` [Example 115, 3-acetylmercapto-4-n-butyl-1,2,4-triazole]: in assay [1], the pest or weed control at 280.212 g/ha amounted to 99% and the pest or weed control at 1120.85 g/ha amounted to 100%. In addition, in assay [2], the pest or weed control at 280.212 g/ha came to 90% and the pest or weed control at 1120.85 g/ha is 95%.

For `O=[N+]([O-])c1ccc(-n2cnnc2)cc1` [Example 59, 4-(4-nitrophenyl)-1,2,4-triazole], in assay [1], the pest or weed control at 280.212 g/ha is 97% and the pest or weed control at 1120.85 g/ha came out at 98%. Besides, in assay [2], the pest or weed control at 280.212 g/ha is 58% and the pest or weed control at 1120.85 g/ha turned out to be 79%.

For `c1nncn1CCCCn1cnnc1` [Example 37, 4-[4-(1,2,4-triazyl)butyl]-1,2,4-triazole], in assay [1], the pest or weed control at 280.212 g/ha is 0% and the pest or weed control at 1120.85 g/ha is 0%. In assay [2], the pest or weed control at 280.212 g/ha amounted to 5% and the pest or weed control at 1120.85 g/ha turned out to be 0%.

`c1ccc2sc(-n3cnnc3)nc2c1` [Example 69, 4-(2-benzothiazyl)-1,2,4-triazole]: in assay [1], the pest or weed control at 280.212 g/ha was 100% and the pest or weed control at 1120.85 g/ha was 100%. Besides, in assay [2], the pest or weed control at 280.212 g/ha is 98% and the pest or weed control at 1120.85 g/ha turned out to be 98%.

For `CCC(C)n1cnnc1` (stereo not drawn) [Example 5, 4-sec-butyl-1,2,4-triazole], the pest or weed control at 280.212 g/ha amounted to 97% in assay [1] and 78% in assay [2]. Also, the pest or weed control at 1120.85 g/ha was 99% in assay [1] and 69% in assay [2].

In the case of `Clc1ccc(OCCn2cnnc2)c(Cl)c1` [Example 29, 4-(2-(2,4-dichlorophenoxy)ethyl)-1,2,4-triazole], in assay [1], the pest or weed control at 280.212 g/ha worked out at 0% and the pest or weed control at 1120.85 g/ha was 20%. Further, in assay [2], the pest or weed control at 280.212 g/ha worked out at 0% and the pest or weed control at 1120.85 g/ha was found to be 0%.

Turning to `Clc1ccc(OCCn2cnnc2)cc1` [Example 26], in assay [1], the pest or weed control at 280.212 g/ha came to 0% and the pest or weed control at 1120.85 g/ha is 10%. Further, in assay [2], the pest or weed control at 280.212 g/ha was 0% and the pest or weed control at 1120.85 g/ha is 0%.

In the case of `CCC(O)Cn1cnnc1` (stereo not drawn) [Example 19, 4-(2-hydroxybutyl)-1,2,4-triazole], the values for the pest or weed control at 280.212 g/ha in assay [1] and in assay [2] were 65% and 0%, respectively. Also, the results for the pest or weed control at 1120.85 g/ha in assay [1] and in assay [2] were 65% and 0%, respectively.

In the case of `CCCCn1cnnc1SC(=O)CCC` [Example 117, 3-butyrylmercapto-4-n-butyl-1,2,4-triazole], in assay [1], the pest or weed control at 280.212 g/ha came out at 100% and the pest or weed control at 1120.85 g/ha came out at 100%. In assay [2], the pest or weed control at 280.212 g/ha came out at 95% and the pest or weed control at 1120.85 g/ha came out at 99%.

On to `CCCCn1c(S)nnc1-c1ccco1` [Example 91, 3-mercapto-4-n-butyl-5-(2-furyl)-1,2,4-triazole], for which the figures for the pest or weed control at 280.212 g/ha in assay [1] and in assay [2] were 41% and 100%, respectively. Besides, the values for the pest or weed control at 1120.85 g/ha in assay [1] and in assay [2] were 72% and 100%, respectively.

Consider `Sc1nnc(-c2ccco2)n1-c1ccccc1` [Example 92, 3-mercapto-4-phenyl-5-(2-furyl)-1,2,4-triazole], for which the pest or weed control at 280.212 g/ha in assay [1] and in assay [2] was 100% each time. Also, the pest or weed control at 1120.85 g/ha in assay [1] amounted to 81%; in assay [2], 87%.

In the case of `Cn1c(S)nnc1-c1ccco1` [Example 90, 3-mercapto-4-methyl-5-(2-furyl)-1,2,4-triazole], in assay [1], the pest or weed control at 280.212 g/ha was determined as 0% and the pest or weed control at 1120.85 g/ha was 28%. Besides, in assay [2], the pest or weed control at 280.212 g/ha is 80% and the pest or weed control at 1120.85 g/ha turned out to be 87%.

As for `CCCCn1cnnc1SC(=O)COC` [Example 116, 3-methoxyacetylmercapto-4-n-butyl-1,2,4-triazole], in assay [1], the pest or weed control at 280.212 g/ha stood at 100% and the pest or weed control at 1120.85 g/ha was found to be 100%. Further, in assay [2], the pest or weed control at 280.212 g/ha was found to be 95% and the pest or weed control at 1120.85 g/ha is 99%.

For `O=[N+]([O-])c1ccc(Sc2nncn2-c2ccccc2)c([N+](=O)[O-])c1` [Example 128, 3-(2,4-dinitrophenylmercapto)-4-phenyl-1,2,4-triazole], the pest or weed control at 280.212 g/ha is 100% in assay [1] and 84% in assay [2]. In addition, the results for the pest or weed control at 1120.85 g/ha in assay [1] and in assay [2] were 100% and 90%, respectively.

For `C=CCSc1nncn1CCCC` [Example 105, 3-allylmercapto-4-n-butyl-1,2,4-triazole], in assay [1], the pest or weed control at 280.212 g/ha was 50% and the pest or weed control at 1120.85 g/ha was found to be 95%. In addition, in assay [2], the pest or weed control at 280.212 g/ha was found to be 50% and the pest or weed control at 1120.85 g/ha stood at 90%.

Turning to `CCCCn1cnnc1SC(=O)c1ccccc1Br` [Example 118, 3-(2-bromobenzoylmercapto)-4-n-butyl-1,2,4-triazole], in assay [1], the pest or weed control at 280.212 g/ha is 100% and the pest or weed control at 1120.85 g/ha was 100%. Also, in assay [2], the pest or weed control at 280.212 g/ha is 100% and the pest or weed control at 1120.85 g/ha came to 100%.

Turning to `CCCCSc1nncn1CCCC` [Example 103, 3-n-butylmercapto-4-n-butyl-1,2,4-triazole], the pest or weed control at 280.212 g/ha in assay [1] and in assay [2] was 50% throughout. The pest or weed control at 1120.85 g/ha in assay [1] was found to be 90%; in assay [2], 80%.

Regarding `Sc1nncn1C1CCCCC1` [Example 83, 3-mercapto-4-cyclohexyl-1,2,4-triazole], in assay [1], the pest or weed control at 280.212 g/ha is 44% and the pest or weed control at 1120.85 g/ha worked out at 34%. Besides, in assay [2], the pest or weed control at 280.212 g/ha was found to be 100% and the pest or weed control at 1120.85 g/ha was 98%.

With `CC(O)CCn1cnnc1` (stereo not drawn) [Example 20, 4-(3-hydroxybutyl)-1,2,4-triazole], the pest or weed control at 280.212 g/ha in assay [1] and in assay [2] was 0% in each case. The pest or weed control at 1120.85 g/ha in assay [1] and in assay [2] was 0% each time.

In the case of `c1ccc2[nH]c(-n3cnnc3)nc2c1` [Example 71, 4-(2-benzimidazolyl)-1,2,4-triazole], in assay [1], the pest or weed control at 280.212 g/ha is 10% and the pest or weed control at 1120.85 g/ha stood at 20%. Also, in assay [2], the pest or weed control at 280.212 g/ha stood at 0% and the pest or weed control at 1120.85 g/ha amounted to 0%.

Turning to `c1nc(CCn2cnnc2)c[nH]1` [Example 36, 4-[2-(4-imidazolyl)]-1,2,4-triazole], the pest or weed control at 280.212 g/ha in assay [1] and in assay [2] was 0% in each case. Further, the pest or weed control at 1120.85 g/ha in assay [1] and in assay [2] was 10% in each case.

Take `c1nncn1C1CC1` [Example 2, 4-cyclopropyl-1,2,4-triazole]: the results for the pest or weed control at 280.212 g/ha in assay [1] and in assay [2] were 90% and 40%, respectively. Besides, the results for the pest or weed control at 1120.85 g/ha in assay [1] and in assay [2] were 90% and 0%, respectively.

With `CC(C)(C)n1cnnc1S` [Example 77, 3-mercapto-4-t-butyl-1,2,4-triazole], in assay [1], the pest or weed control at 280.212 g/ha was 68% and the pest or weed control at 1120.85 g/ha was determined as 100%. Further, in assay [2], the pest or weed control at 280.212 g/ha was determined as 57% and the pest or weed control at 1120.85 g/ha stood at 80%.

Turning to `Cn1cnnc1S` [Example 73, 3-mercapto-4-methyl-1,2,4-triazole], the pest or weed control at 280.212 g/ha in assay [1] was determined as 34%; in assay [2], 0%. Further, the values for the pest or weed control at 1120.85 g/ha in assay [1] and in assay [2] were 50% and 10%, respectively.

With `CCOC(=O)CC(C)n1cnnc1` (stereo not drawn) [Example 40, 4-(1-methyl-2-ethoxycarbonylethyl)-1,2,4-triazole], in assay [1], the pest or weed control at 280.212 g/ha was 40% and the pest or weed control at 1120.85 g/ha was determined as 40%. Moreover, in assay [2], the pest or weed control at 280.212 g/ha came to 10% and the pest or weed control at 1120.85 g/ha worked out at 10%.

As to `CCCCn1cnnc1SC(=O)c1cc(OC)c(OC)c(OC)c1` [Example 123, 3-(3,4,5-trimethoxybenzoylmercapto)-4-n-butyl-1,2,4-triazole], in assay [1], the pest or weed control at 280.212 g/ha came to 98% and the pest or weed control at 1120.85 g/ha turned out to be 100%. Also, in assay [2], the pest or weed control at 280.212 g/ha turned out to be 90% and the pest or weed control at 1120.85 g/ha stood at 98%.
